The test system of series [1] is glutamate-induced neurotoxicity in ESNs. Type of series: cell-based, mouse.
Series [2] concerns ESNs. Type of series: cell-based, mouse.
The subject of series [3] is ESNs. Put plainly: cells. The following applies: read-out: EC50 of loss of viability (metabolic activity). The series is classed as cell-based, mouse.
Series [4] concerns ESNs. The following applies: mouse.
In series [5] the test system is ESNs. The series is classed as cell-based, mouse. The source holds these as a separate data set.
The test system of series [6] is ESNs. The series is classed as cell-based, mouse. This is another data set of the same source.
The next series deals with VAMP2 (Mus musculus, UniProt P63044). Type of series: cell-based.
VAMP2, sequence (P63044 2-116 limits assumed): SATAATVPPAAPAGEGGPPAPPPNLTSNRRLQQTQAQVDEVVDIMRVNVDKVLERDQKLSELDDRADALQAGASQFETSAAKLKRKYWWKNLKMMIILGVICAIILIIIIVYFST
In series [7] the test system is ESNs. The series is classed as cell-based, mouse. This is another data set of the same source.
The subject of series [8] is ESNs. Type of series: cell-based, mouse. The conditions noted are these: read-out: EC50 for Ca^2+ uptake.
In series [9] the test system is ESNs. The series is classed as cell-based, mouse. The source holds these as a separate data set.
The test system of series [10] is Ca^2+ influx through LTX pores. The series is classed as cell-based, mouse.
Another series concerns BoNT/A-intoxicated ESNs. The series is classed as cell-based, mouse.

Where “and” joins values, the source holds several entries; their conditions need not be identical. Identical values can stand only once. Like-named read-outs stand apart in the source and are kept apart here.

On to `N[C@H](CCCP(=O)(O)O)C(=O)O` [APV, R-2-amino-5-phosphonopentanoate], for which, in series [1], the “effect on NMDA-induced neurotoxicity” value was “blocked in a dose-dependent manner” and the “effect on glutamate-induced cell death” value is listed as “prevented glutamate-induced cell death in a dose-dependent manner”.
Turning to `N#Cc1cc2c(cc1[N+](=O)[O-])=NC(=O)C(=O)N=2` [CNQX, 6-cyano-7-nitroquinoxaline-2,3-dione], the “effect on glutamate-induced cell death” value in series [1] is “not protective”.
Take `NCCCC(=O)O` [GABA, γ-aminobutyric acid]: in the series with ESNs [2], the “acute Ca^2+ uptake” value was “no effect”.
The EC50 is the midpoint of the concentration-response curve. Take `CN[C@H](CC(=O)O)C(=O)O` [NMDA, N-methyl-D-aspartate]: in the series on ESNs [3], the EC50 turned out to be 390 nM.
On to `N[C@@H](CCC(=O)O)C(=O)[O-].[Na+]` [glutamate, Mono-sodium glutamate], for which, in the series with ESNs [4], the “concentration at which primary necrosis was first observed” value is 3000 µM. In the series on ESNs [3] (Mus musculus, 24 h), the EC50 was 410 nM. Moreover, the “duration of evoked series of action potentials” value in the series on ESNs [5] is 5 to 10 s. For the same compound, in the series with ESNs [6], the “Normalize log2 (FC) Casp4” value is reported as 2.96, the “Normalize log2 (FC) Casp6” value was found to be 2.15, the “Normalize log2 (FC) Casp12” value is listed as 3.03 and the “Normalize log2 (FC) Cdk1” value stood at 3.11. In the series with ESNs [6], the “Normalize log2 (FC) CflaR” value came to 2.54, the “Normalize log2 (FC) Dap1” value is 2.84, the “Normalize log2 (FC) Dapk2” value came out at 4.18 and the “Normalize log2 (FC) Dram1” value is 2.63. Further, in the series on ESNs [6], the “Normalize log2 (FC) Fadd1” value stood at 1.98, the “Normalize log2 (FC) Grin1” value was found to be 0.39, the “Normalize log2 (FC) Pawr” value was found to be 3.49 and the “Normalize log2 (FC) Snap25” value is given as −0.52. The “Normalize log2 (FC) Traf1” value with ESNs [6] was found to be 5.02.
For `NCc1cc(=O)[nH]o1` [muscimol], in the series with ESNs [5], the GABA-A receptor current result is reported as “evokes a strong outward Cl− current”.
Turning to Tetanospasmin neurotoxin [tetanus], the “VAMP2 signal by immunoblot” value at VAMP2 is “nearly complete loss of VAMP2 signal”.
As for gadolinium chloride [Gd^3+], the “elimination of acute glutamate-evoked Ca^2+ signal” value with ESNs [2] was “over 95%”. In addition, the “effect on glutamate-induced cell death” value in series [1] is listed as “no effect on viability”.
For α-Latrotoxin [LTX], in the series with ESNs [7], the “decrease of total protein yield compared to controls” value is 44±16% and 52±19%; the “decrease of total protein yield relative to untreated cultures” value was “approximately 50%”. Further, the EC50 with ESNs [8] came to 0.175 nM. In addition, the “delay between addition and onset of Fluo-4 fluorescence” value in the series on ESNs [9] is reported as 1.5 min. The “Ca^2+ influx, normalized to LTX (%)” value in series [10] amounted to 100.0%. Further, the “rescue of full-length SNAP-25” value in the series on BoNT/A-intoxicated ESNs is 92±4.6% and 98±1.7%.

Values taken from patent US20150153325A1 (priority 2012, published 2015).
